Key:
[1] = target: Sigma non-opioid intracellular receptor 1 (Homo sapiens) (UniProt Q99720); assay: Inhibition of non selective binding to sigma receptor at 10 uM
[2] = target: T1, 5-hydroxytryptamine receptor 2C (Homo sapiens, UniProt P28335); assay: biochemical
T1 sequence (P28335 whole entry): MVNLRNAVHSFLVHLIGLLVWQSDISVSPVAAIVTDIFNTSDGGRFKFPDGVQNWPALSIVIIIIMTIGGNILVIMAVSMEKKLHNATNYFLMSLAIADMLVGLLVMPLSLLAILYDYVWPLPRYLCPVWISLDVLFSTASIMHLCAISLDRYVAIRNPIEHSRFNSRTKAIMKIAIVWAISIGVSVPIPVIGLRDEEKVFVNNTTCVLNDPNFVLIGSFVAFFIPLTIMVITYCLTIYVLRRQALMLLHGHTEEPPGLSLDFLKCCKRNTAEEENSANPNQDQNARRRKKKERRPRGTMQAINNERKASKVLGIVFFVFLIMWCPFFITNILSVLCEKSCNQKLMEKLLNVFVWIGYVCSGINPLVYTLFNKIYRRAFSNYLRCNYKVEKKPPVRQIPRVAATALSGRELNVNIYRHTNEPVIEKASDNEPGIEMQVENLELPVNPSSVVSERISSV
Description: Displacement of [125I]DOI from cloned human 5HT2C receptor expressed in CHO cells

[3] = Inhibitory activity at calcium activated potassium channel 6 at 1 nM
[4] = target: T2, Adrenergic receptor beta (Homo sapiens) (UniProt P08588+P07550+P13945); assay: Inhibition of non selective binding to adrenergic beta receptor at 10 uM; type: protein assay
[5] = target: 5-hydroxytryptamine receptor 1B (Homo sapiens, UniProt P28222); assay: Inhibitory activity against 5HT1B receptor
MDR1 (P-gp) = assay: Permeability from apical to basolateral side of the MDCK cell transfected with human MDR1; type: ADME, cell-based
[6] = target: 5-hydroxytryptamine receptor 2A (Rattus norvegicus) (UniProt P14842); assay: (§1) Activity against 5HT2A mediated intracellular calcium mobilization by FLIPR in rat vascular smooth muscle cells; type: functional, cell-based
[7] = target: T3, 5-hydroxytryptamine receptor 2A (Rattus norvegicus, UniProt P14842); assay: as §1; type: functional, cell-based
[8] = target: 5-hydroxytryptamine receptor 6 (Homo sapiens, UniProt P50406); assay: Inhibitory activity against 5HT6 receptor
[9] = Inhibition of non selective binding to VIP at 100 nM
[10] = target: T2, Adrenergic receptor beta (Homo sapiens); assay: Inhibition of non selective binding to adrenergic beta receptor at 100 nM; type: protein assay
[11] = target: T4, Alpha-2A adrenergic receptor (Homo sapiens, UniProt P08913); assay: Activity at adrenergic alpha-2A receptor expressed in human clonic adenocarcinoma HT29 cell by adenylyl cyclase assay; type: functional, cell-based, HT-29
T4 sequence (P08913 whole entry): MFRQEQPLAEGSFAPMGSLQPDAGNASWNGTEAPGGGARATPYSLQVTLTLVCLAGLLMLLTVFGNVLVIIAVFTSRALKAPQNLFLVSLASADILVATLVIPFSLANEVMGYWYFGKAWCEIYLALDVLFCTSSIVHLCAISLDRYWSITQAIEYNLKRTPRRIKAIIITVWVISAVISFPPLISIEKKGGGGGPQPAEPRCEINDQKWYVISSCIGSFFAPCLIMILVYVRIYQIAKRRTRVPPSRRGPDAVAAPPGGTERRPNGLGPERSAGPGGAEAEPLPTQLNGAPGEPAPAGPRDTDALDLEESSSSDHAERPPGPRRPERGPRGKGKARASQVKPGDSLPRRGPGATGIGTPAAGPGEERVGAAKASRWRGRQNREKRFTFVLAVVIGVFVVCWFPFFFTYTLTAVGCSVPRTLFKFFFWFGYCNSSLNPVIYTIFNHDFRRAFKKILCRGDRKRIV

[12] = target: T3, 5-hydroxytryptamine receptor 2A; type: tissue-based, Cerebral cortex
[13] = Inhibitory activity at site 2 of sodium channel at 100 nM
[14] = target: T5, 5-hydroxytryptamine receptor 1A (Homo sapiens) (UniProt P08908); assay: Inhibition of forskolin activated adenylate cyclase at 10 uM; type: functional
T5 sequence (whole entry): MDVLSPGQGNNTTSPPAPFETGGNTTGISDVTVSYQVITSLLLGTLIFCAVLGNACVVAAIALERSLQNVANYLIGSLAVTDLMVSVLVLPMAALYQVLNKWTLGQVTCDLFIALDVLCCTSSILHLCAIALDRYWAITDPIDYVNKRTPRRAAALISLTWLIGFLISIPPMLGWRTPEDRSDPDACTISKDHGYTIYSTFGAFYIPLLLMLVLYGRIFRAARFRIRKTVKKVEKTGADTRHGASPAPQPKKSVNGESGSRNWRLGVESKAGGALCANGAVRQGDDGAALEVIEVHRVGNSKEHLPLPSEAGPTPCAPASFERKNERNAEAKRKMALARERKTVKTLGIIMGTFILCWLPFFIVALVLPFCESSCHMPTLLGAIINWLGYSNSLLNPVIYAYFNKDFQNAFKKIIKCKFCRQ

[15] = target: T6, monoamine oxidase A (MAO-A) (Rattus norvegicus, UniProt P21396); assay: Inhibition of monoamine oxidase A in rat brain at 100 nM; type: tissue-based
T6 sequence (P21396 whole entry): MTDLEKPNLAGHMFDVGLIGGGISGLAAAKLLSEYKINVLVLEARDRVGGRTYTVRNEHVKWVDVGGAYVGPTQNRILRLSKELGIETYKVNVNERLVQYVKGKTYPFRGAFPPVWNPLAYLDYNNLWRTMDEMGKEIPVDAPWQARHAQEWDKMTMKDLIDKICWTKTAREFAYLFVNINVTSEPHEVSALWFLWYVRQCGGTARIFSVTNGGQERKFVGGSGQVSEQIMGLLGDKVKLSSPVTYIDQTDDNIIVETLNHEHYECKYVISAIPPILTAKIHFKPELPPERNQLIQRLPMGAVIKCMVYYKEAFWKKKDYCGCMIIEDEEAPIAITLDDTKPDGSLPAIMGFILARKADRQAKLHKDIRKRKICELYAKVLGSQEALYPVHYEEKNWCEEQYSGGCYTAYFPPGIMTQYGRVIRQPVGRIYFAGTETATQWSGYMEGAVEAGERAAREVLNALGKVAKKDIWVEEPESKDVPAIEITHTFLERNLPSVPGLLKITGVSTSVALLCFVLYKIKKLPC

[16] = target: T7, Type-1 angiotensin II receptor (Homo sapiens) (UniProt P30556); assay: Inhibition of type 1 angiotensin 2 receptor at 1 nM
T7 sequence (whole entry): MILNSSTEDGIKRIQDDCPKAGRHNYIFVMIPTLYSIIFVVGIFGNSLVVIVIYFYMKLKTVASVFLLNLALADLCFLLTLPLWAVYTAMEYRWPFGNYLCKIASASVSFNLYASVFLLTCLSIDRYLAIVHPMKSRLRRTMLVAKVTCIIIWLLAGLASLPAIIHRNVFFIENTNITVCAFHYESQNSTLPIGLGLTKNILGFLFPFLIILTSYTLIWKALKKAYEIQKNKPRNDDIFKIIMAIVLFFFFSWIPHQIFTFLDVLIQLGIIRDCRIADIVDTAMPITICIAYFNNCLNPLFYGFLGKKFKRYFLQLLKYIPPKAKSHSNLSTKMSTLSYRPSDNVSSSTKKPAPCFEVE

[17] = target: Sigma non-opioid intracellular receptor 1 (Homo sapiens) (UniProt Q99720); assay: Inhibition of non selective binding to sigma receptor at 1 nM

T3 sequence (P14842 whole entry): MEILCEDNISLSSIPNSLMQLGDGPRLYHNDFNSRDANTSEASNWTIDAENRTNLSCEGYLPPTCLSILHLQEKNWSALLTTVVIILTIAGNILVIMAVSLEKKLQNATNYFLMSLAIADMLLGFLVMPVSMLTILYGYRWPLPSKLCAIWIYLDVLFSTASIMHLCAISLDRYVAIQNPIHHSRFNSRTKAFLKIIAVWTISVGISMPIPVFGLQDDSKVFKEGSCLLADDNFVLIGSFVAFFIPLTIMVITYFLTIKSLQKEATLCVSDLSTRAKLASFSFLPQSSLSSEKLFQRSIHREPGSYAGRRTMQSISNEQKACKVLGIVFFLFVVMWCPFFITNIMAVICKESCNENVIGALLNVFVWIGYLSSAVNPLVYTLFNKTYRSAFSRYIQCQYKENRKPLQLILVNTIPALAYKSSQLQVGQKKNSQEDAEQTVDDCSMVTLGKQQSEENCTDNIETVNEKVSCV
Sequence of Sigma non-opioid intracellular receptor 1 (Homo sapiens) (Q99720 whole entry): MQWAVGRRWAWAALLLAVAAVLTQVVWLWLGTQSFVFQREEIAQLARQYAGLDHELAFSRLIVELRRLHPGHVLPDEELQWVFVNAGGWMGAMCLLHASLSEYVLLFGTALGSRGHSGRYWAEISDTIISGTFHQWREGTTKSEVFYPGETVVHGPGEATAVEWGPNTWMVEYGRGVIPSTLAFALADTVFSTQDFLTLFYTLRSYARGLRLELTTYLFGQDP
Sequence of 5-hydroxytryptamine receptor 2A (Rattus norvegicus) (P14842 whole entry): as the sequence (P14842 whole entry) above
Sequence of 5-hydroxytryptamine receptor 1B (P28222 whole entry): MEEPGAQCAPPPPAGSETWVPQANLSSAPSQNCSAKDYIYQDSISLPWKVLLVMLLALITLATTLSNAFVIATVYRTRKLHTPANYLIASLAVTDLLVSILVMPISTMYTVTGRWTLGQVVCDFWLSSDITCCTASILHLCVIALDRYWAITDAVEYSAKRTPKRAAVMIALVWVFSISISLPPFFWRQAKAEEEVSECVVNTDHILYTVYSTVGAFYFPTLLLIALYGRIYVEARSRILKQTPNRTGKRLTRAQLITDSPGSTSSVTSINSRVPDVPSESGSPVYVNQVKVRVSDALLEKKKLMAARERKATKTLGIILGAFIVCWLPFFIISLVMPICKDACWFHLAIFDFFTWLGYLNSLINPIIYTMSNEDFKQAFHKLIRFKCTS
Sequence of 5-hydroxytryptamine receptor 6 (P50406 whole entry): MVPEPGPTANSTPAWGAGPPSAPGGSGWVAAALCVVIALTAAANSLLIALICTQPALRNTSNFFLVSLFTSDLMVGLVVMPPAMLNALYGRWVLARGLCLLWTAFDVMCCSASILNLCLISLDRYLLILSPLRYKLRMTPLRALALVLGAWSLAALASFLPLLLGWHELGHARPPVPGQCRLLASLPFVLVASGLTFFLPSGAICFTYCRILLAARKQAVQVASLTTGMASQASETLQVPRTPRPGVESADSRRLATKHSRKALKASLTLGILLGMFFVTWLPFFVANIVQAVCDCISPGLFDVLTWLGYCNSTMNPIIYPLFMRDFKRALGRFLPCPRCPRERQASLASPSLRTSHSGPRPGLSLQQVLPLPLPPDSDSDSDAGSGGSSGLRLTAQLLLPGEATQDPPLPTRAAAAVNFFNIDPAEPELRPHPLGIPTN

For `C[C@H](N)Cn1ncc2ccc(O)cc21`, the inhibition [1] was -7.73%, the Ki [2] was 3 nM and the inhibition [3] was 10.4%. The inhibition [4] was 30.4%, the Ki [5] was greater than 10000 nM and the Papp A→B (MDR1 (P-gp)) was 0.76 ×10⁻⁶ cm/s. It also gave an Emax [6] of 81%, an EC50 [7] of 42.7 nM and a Ki [8] greater than 10000 nM. For the same compound, the inhibition [9] was 5.41%, the inhibition [10] was -7.77% and the EC50 [11] was greater than 10000 nM. For the same compound, the IC50 [12] was 0.58 nM, the inhibition [13] was 5.17% and the inhibition [14] was 4.1%. For the same compound, the inhibition at 0.1 µM [15] was -22.3%, the inhibition [16] was 5.26% and the inhibition [17] was -2.35%.

Reference: ChEMBL document CHEMBL1148572, “1-((S)-2-aminopropyl)-1H-indazol-6-ol: a potent peripherally acting 5-HT2 receptor agonist with ocular hypotensive activity” (J Med Chem, 2006)
